According to patent US20150307850A1, “CONDITIONAL REPLICATING VIRAL VECTORS” (priority 2012, published 2015):

Assays:
FKBP = FKBP (Homo sapiens, UniProt P62942, F37V); details: F36V FKBP derivative vs wild-type FKBP; cited from earlier work
ARPE-19 cells = test: Shield-1 concentration dependent progeny virus production (TCID50 assay); assay type: cell-based, human; details: FKBP derivative fused to UL51 or UL52
Procedure: FKBP fusion proteins used in this study comprise an essential protein (IE1/2, UL51, UL52, UL79, UL84, UL87, IE1/2-UL51) fused to an FKBP derivative (ddIE1/2, ddUL51, ddUL52, ddUL79, ddUL84, ddUL87, and ddIE1/2-UL51). ARPE-19 cells were infected with the various rdCMV viruses comprising the noted fusion proteins, at a multiplicity of 0.01 PFU/cell for 1 hour, washed twice with fresh medium, and incubated in the growth medium containing 0, 0.05, 0.1 0.5 or 2 μM of Shield-1. Seven days post infection, the cell free virus was collected, and virus titers were determined by TCID50 assay on ARPE-19 cells in the presence of 2 μM of Shield 1.
Varying concentrations of Shld-1 were used in additional experiments to further assess viral replication in the presence or absence of Shld-1. ARPE-19 cells were infected by the gH expressing CMV that also contained a FKBP derivative fused to an essential protein at MOI of […]. After infection for 1 hour, the cells were washed twice with fresh medium to remove Shld-1. […] Virus titers were determined by a 50% Tissue Culture Infective Dose (TCID50) assay. Briefly, this dilution assay quantifies the amount of virus required to kill 50% of infected hosts. […] After incubation, the percentage of cell death (i.e. infected cells) was manually observed and recorded for each virus dilution. […]

Sequence of FKBP (P62942 2-108 F37V limits assumed): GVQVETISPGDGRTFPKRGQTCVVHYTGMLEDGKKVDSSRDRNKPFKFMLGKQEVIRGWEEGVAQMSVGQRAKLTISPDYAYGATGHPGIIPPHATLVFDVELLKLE

Question: Which results are given for CC[C@H](C(=O)N1CCCC[C@H]1C(=O)O[C@H](CCc1ccc(OC)c(OC)c1)c1cccc(OCCN2CCOCC2)c1)c1cc(OC)c(OC)c(OC)c1 [Shield-1]?
Answer: Binding to the F36V derivative compared to wild-type FKBP (tighter) (FKBP): about 1,000 fold; Shield-1 concentration that can effectively turn on or off viral replication (ARPE-19 cells): 50 nM
